Data taken from ChEMBL document CHEMBL4000231, “Natural potential neuroinflammatory inhibitors from Alhagi sparsifolia Shap” (Bioorg Med Chem Lett, 2017).

Key:
N9 [1] = assay: Antineuroinflammatory activity in mouse N9 cells assessed as inhibition of LPS-induced nitric oxide production after 24 hrs by Griess assay; type: functional, cell-based
N9 [2] = assay: Cytotoxicity against LPS-induced mouse N9 cells assessed as decrease in cell viability at 1 to 100 ug/ml after 24 hrs by MTT assay; type: cell-based; details: n9, 24 h

| SMILES | inhibition (N9 [1]) | Activity (N9 [2]) |
| --- | --- | --- |
| O=c1c(O)c(-c2ccc(O)c(O)c2)oc2cc(O)cc(O)c12 [QUERCETIN] | Dose-dependent effect | Non-Toxic |
| CC1=CC(C)(C)[C@@H](C)C1 | Dose-dependent effect | Non-Toxic |
| C=Cc1ccc(O)cc1OC | Dose-dependent effect | Non-Toxic |
| O=C(N[C@@H](Cc1ccccc1)C(=O)N[C@H](CO)Cc1ccccc1)c1ccccc1 | Dose-dependent effect | Non-Toxic |
| COc1cc([C@@H]2OC[C@@H]3[C@H]2CO[C@H]3c2ccc(O)c(OC)c2)ccc1O [(+)-PINORESINOL] | Dose-dependent effect | Non-Toxic |
| COc1cc([C@H]2OC[C@H]3[C@@H]2CO[C@@H]3c2cc(OC)c(O)c(OC)c2)cc(OC)c1O [SYRINGARESINOL] | Dose-dependent effect | Non-Toxic |
| CC1=CC(=O)CC(C)(C)[C@@]1(O)/C=C/[C@@H](C)O [BLUMENOL A] | Dose-dependent effect | Non-Toxic |
| COc1ccc(-c2coc3c(OC)c(O)ccc3c2=O)cc1O | Dose-dependent effect | Non-Toxic |
| COc1cc(OC)cc([C@@H]2OC[C@H]3[C@@H]2CO[C@H]3c2ccc(O)c(OC)c2)c1 | Dose-dependent effect | Non-Toxic |
| COc1ccc(-c2coc3cc(O)c(OC)cc3c2=O)cc1O [ODORATIN] | Dose-dependent effect | Non-Toxic |
| COc1cc(-c2oc3cc(O)cc(O)c3c(=O)c2O)ccc1O [ISORHAMNETIN] | Dose-dependent effect | Non-Toxic |
| C[C@@H]1O[C@@H](OC[C@H]2O[C@@H](Oc3c(-c4ccc(O)c(O)c4)oc4cc(O)cc(O)c4c3=O)[C@H](O[C@@H]3O[C@@H](C)[C@H](O)[C@@H](O)[C@H]3O)[C@@H](O)[C@@H]2O)[C@H](O)[C@H](O)[C@H]1O | Dose-dependent effect | Non-Toxic |
| O=c1c(O[C@@H]2O[C@H](CO)[C@@H](O)[C@H](O)[C@H]2O)c(-c2ccc(O)c(O)c2)oc2cc(O)cc(O)c12 [ISOQUERCETIN] | Dose-dependent effect | Non-Toxic |
| COc1cc([C@@H]2OC[C@@H]3[C@H]2CO[C@H]3c2cc(OC)c(O[C@@H]3O[C@H](CO)[C@@H](O)[C@H](O)[C@H]3O)c(OC)c2)cc(OC)c1O [ACANTHOSIDE B] | Dose-dependent effect | Non-Toxic |
| COc1ccc(-c2coc3cc(O)ccc3c2=O)cc1O [CALYCOSIN] | Dose-dependent effect | Non-Toxic |
| COc1ccc(CO)cc1O | Dose-dependent effect | Non-Toxic |
| CC1=CC(=O)CC(C)(C)[C@@]1(O)/C=C/C(C)=C\C(=O)O [(+)-ABSCISIC ACID] | Dose-dependent effect | Non-Toxic |
